# Measured values reported in patent publication US4962020A, “DNA sequencing” (President and Fellows of Harvard College, priority 1988, dated 1990).
# Read-outs that look alike come from different tables or passages of the source.
# Legend:
# [1] = tested on: DNA polymerase; test: ddNTP versus dNTP incorporation (discrimination) in primer extension / sequencing reaction with metal ions; assay type: biochemical; conditions: for effect of cation on DNA synthesis / sequencing reaction: monovalent and divalent cations tested
# Protocol: In order to determine whether any particular DNA polymerase, in combination with any particular chain terminating agent, or other component of a sequencing reaction mixture, is useful in this invention, a standard sequencing reaction is performed, as described below and shown in the drawings, and the extent of band formation, and the uniformity of nearby bands in a sequencing gel, reviewed. […] Adjacent band uniformity within a two-fold or less range is useful in this invention, preferably the uniformity is within a 1.0-1.5 fold range. Similarly, determination of optimum cation concentration, or of other potential cations useful in the invention, is determined by use of this sequencing reaction under various conditions. For example, cations are tested in ranges from 0.005-100 mM. An example of such an experiment follows:
# DNA synthesis is measured using a 17-mer primer of sequence 5'-[…]-3' (New England Biolabs catalog number 1211) that has been labeled with ^32 P at its 5' end and annealed to single-stranded mGPl-2 DNA. Tabor et al., proc. Nat. Acad. Sci. USA 84:4767 (1987) and Tabor et al., J. Biol. Chem. 262:16212 (1987). Any other template is equally useful in this reaction. This primer-template is used in a reaction that contains a DNA polymerase in the presence of a range of concentrations of a metal ion. Reactions are carried out in the presence of a given concentration of all 4 deoxynucleotides (dNTPS, 20-200 μM), and over a range of concentrations of one dideoxynucleotide (ddNTP, in this example, ddGTP from 10-500 μM). The DNA products are then analyzed by polyacrylamide gel electrophoresis, where DNA synthesis is detected as extensions of the primer producing bands, representing extensions of various molecular weights, in the gel.
# In a specific example, each reaction mixture (10μl) contained 0.1 μg^32 P-primer-template, 40 mM Tris-HCl pH 7.5, 5 mM dithiothreitol (DTT) 5μM to 20mM metal ion, 10 to 500 μM 4dNTPs, 1 to 500 μM ddNTPs, and 2 units of a DNA polymerase. Incubation was at 37° C. for 15 min. The reaction was stopped by addition of 10μl of 90% formamide, 50 mM EDTA, and 0.1% bromophenol blue.
# Electrophoresis was at 2000 volts for 2 hours. The gel was fixed in 50% methanol, 10% acetic acid for 30 min., dried, and exposed, for autoradiography. Band intensity in each lane of the resulting film was determined by scanning each lane with a densitometer. The densitometer used was a double-beam recording instrument, model MkIIIC (Joyce, Loebl & Co., Ltd., Gateshead-on-tyne, II, England). Any suitable densitometer instrument for scanning gels will also work. Alternatively, the uniformity of the resulting bands can be determined by scanning the DNA products as they are electrophoresed within the gel.
# The ability to incorporate a given ddNTP compared to the corresponding dNTP for any one enzyme is measured as the ratio of ddNTP to dNTP necessary to allow DNA synthesis that terminates in a fixed range, detected as producing bands of no greater than a fixed molecular weight. That is, the bands produced in the reaction end within a specified range in the sequencing gel. Thus, if one enzyme discriminates 1000-fold greater against a given ddNTP compared to another enzyme, a 1000-fold higher ratio of ddNTP to dNTP will be necessary to obtain bands terminating at the corresponding sites in the same range of the gel.
# [2] = target: genetically modified T7 DNA polymerase (ΔLys118-Arg145) (Escherichia phage T7, UniProt P00581, DEL118-145)
# [3] = target: T1, genetically modified T7 DNA polymerase (Escherichia phage T7, UniProt P00581, DEL118-145); assay type: biochemical
# T1 construct: made in house; host or cells: E. coli strain K38/pTrx-3/pGP5-8
# T1 sequence (P00581 other isoform, or with tags, fused parts or gaps DEL118-145): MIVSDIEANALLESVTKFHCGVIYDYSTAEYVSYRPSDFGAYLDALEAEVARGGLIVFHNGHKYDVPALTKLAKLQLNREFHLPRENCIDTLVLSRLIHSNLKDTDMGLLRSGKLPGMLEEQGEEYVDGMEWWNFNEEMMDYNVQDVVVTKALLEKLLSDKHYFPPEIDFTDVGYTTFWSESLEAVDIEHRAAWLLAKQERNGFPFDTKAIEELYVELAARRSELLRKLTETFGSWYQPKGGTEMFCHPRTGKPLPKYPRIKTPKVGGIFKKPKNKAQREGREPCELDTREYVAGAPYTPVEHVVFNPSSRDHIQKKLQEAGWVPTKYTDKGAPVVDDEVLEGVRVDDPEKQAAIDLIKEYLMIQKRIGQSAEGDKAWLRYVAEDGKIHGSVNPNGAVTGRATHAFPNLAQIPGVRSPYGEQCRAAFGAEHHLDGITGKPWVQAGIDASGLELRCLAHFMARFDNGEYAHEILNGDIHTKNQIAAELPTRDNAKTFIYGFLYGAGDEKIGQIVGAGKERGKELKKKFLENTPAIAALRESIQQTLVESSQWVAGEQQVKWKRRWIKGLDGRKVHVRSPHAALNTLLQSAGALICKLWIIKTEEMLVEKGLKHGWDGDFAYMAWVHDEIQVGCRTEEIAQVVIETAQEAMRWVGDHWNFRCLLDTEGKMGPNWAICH
# T1 sequence (P0AA25 2-109, stated change not applied, further chain): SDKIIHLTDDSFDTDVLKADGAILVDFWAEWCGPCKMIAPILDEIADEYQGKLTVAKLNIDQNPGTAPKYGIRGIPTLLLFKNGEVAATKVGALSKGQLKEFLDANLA
# Sequence of genetically modified T7 DNA polymerase (ΔLys118-Arg145) (P00581 with tags, fused parts or gaps DEL118-145): as the sequence (P00581 other isoform, or with tags, fused parts or gaps DEL118-145) above
compound,measurement,setting,value
[Ba] [Ba],effect of cation on DNA synthesis / sequencing reaction,[1],"no detectable effect, or are detrimental to DNA synthesis"
[Be] [Be],effect of cation on DNA synthesis / sequencing reaction,[1],"no detectable effect, or are detrimental to DNA synthesis"
[Ca] [Ca],effect of cation on DNA synthesis / sequencing reaction,[1],"no detectable effect, or are detrimental to DNA synthesis"
[Ce] [Ce],effect of cation on DNA synthesis / sequencing reaction,[1],"no detectable effect, or are detrimental to DNA synthesis"
[Co] [Co],effect of cation on DNA synthesis / sequencing reaction,[1],"no detectable effect, or are detrimental to DNA synthesis"
[Cr] [Cr],effect of cation on DNA synthesis / sequencing reaction,[1],"no detectable effect, or are detrimental to DNA synthesis"
[Cu] [Cu],effect of cation on DNA synthesis / sequencing reaction,[1],"no detectable effect, or are detrimental to DNA synthesis"
[Na] [Na],effect of cation on DNA synthesis / sequencing reaction,[1],"no detectable effect, or are detrimental to DNA synthesis"
[Ni] [Ni],effect of cation on DNA synthesis / sequencing reaction,[1],"no detectable effect, or are detrimental to DNA synthesis"
[Si] [Si],effect of cation on DNA synthesis / sequencing reaction,[1],"no detectable effect, or are detrimental to DNA synthesis"
[Zn] [Zn],effect of cation on DNA synthesis / sequencing reaction,[1],"no detectable effect, or are detrimental to DNA synthesis"
"O=c1[nH]cnc2c1ncn2[C@H]1CC[C@@H](COP(=O)(O)OP(=O)(O)OP(=O)(O)O)O1 [ddITP, dideoxy ITP, reference compound]",discrimination against ddITP compared to ddGTP,[1]; in the presence of Mn,10 fold
"O=C([O-])CC(C(=O)[O-])C(O)C(=O)[O-].[Na+].[Na+].[Na+] (stereo not drawn) [isocitrate, sodium isocitrate]",optimal isocitrate concentration,[2],40 mM
same,effect of isocitrate on polymerase activity,"[2]; 10 mM magnesium, any amount of isocitrate, FIG. 9",inhibitory effect on polymerase
same,stimulation of polymerase activity,"[2]; t7 dna polymerase, 0.5 h, 40000 µM, pH 7.5",4 fold
[Mg+2] [magnesium],intensity of underlined bases in triplets versus adjacent bases,[3]; Example 1 sample run with magnesium in place of manganese,2-5 fold
same,variation of nearby band intensity,"[3]; all four ddNTPs at equal concentration, magnesium, FIG. 6",varies greatly
same,variation of nearby band intensity (peak height),"[3]; ddGTP only, magnesium instead of manganese, FIG. 3",≤ 10 fold
same,optimum ion concentration in a sequencing reaction (polymerase activity),"[2]; absence of a chelator, FIG. 8",20 mM
[Mn+2] [manganese],"difference in band intensity between bases in the triplets TCT, AAG, GCA, CCT","[3]; Example 1, manganese in sequencing buffer, densitometer",at most 20%
same,variation of nearby bands and peaks,"[3]; all four ddNTPs at 0.75 μM each, manganese, FIG. 5",no more than 1.5 fold
same,optimum ion concentration in a sequencing reaction (polymerase activity),[2],1 mM
same,optimum manganese concentration,[2],5 to 20 mM
Taq polymerase: DNA polymerase used for sequencing,lessening of the requirement for chain terminating agents (dideoxynucleosides),[1]; in the presence of manganese or iron ions,~1000 fold
